How the values were obtained:
[1] = Solubility of BMS-986165 crystalline free base as a function of pH; assay type: physicochemical; conditions: pHs>4
[2] = Chemical stability (related substances) of BMS-986165:HPMCAS-H SDDs on storage; assay type: physicochemical; conditions: API standard, no storage condition
Protocol: Lots of 25% w/w BMS-986165 SDD with HPMCAS-H were assessed for physical and chemical stability. […] Dissolution performance in the microcentrifuge test was unchanged.
There was no evidence of crystallization by PXRD in any SDD after storage for up to 6 months at 40° C./75% RH open (FIG. 1A and FIG. 1B). DSC data indicated slight changes similar to those observed in 25% w/w BMS-986165 SDD after exposure to 50° C./75% RH or 40° C./75% RH but there was no trend with API loading and the results were considered to reflect an “ageing” or “annealing” effect rather than crystal formation. Scanning electron microscopy (SEM) images confirmed the presence of a single phase homogenous dispersion (FIG. 2A-C, FIG. 3A-C, FIG. 4A-C).

Row | Compound | solubility [1] | BMS-986165 (related substances, relative ret. time 1.00) [2] | Total impurities >LOQ [2] [%]
1 | [2H]C([2H])([2H])NC(=O)c1nnc(NC(=O)C2CC2)cc1Nc1cccc(-c2ncn(C)n2)c1OC [BMS-986165 crystalline free base, 6-(cyclopropaneamido)-4-((2-methoxy-3-(1-methyl-1H-1,2,4-triazol-3-yl)phenyl)amino)-N-(methyl-d3)pyridazine-3-carboxamide] | low | – | –
2 | [2H]C([2H])([2H])NC(=O)c1nnc(NC(=O)C2CC2)cc1Nc1cccc(-c2ncn(C)n2)c1OC [BMS-986165, 6-(cyclopropaneamido)-4-((2-methoxy-3-(1-methyl-1H-1,2,4-triazol-3-yl)phenyl)amino)-N-(methyl-d3)pyridazine-3-carboxamide] | – | 99.48 | 0.52

— patent publication US12521390B2, “Dosage forms for Tyk2 inhibitors” (Bristol-Myers Squibb Company, priority 2019, dated 2026)
